Data on 2 compounds can be found in patent US20240315958A1, “METHOD AND DEVICE FOR PROVIDING EFFECTIVE CONTRACEPTION” (Chemo Research, S.L., priority 2023, published 2024).

Data set [1] deals with women. The settings on record: POP; desogestrel 0.075 mg, LNG 0.030 mg; cited from earlier work.
For data set [2], the system named is healthy female subjects aged 18-35 years. In words: Return of ovulation in post-treatment cycle. Type of data set: in vivo, human. Conditions: FAS; 28-day post-treatment cycle.
For data set [3] the following is noted: oral administration; cited from earlier work.
In data set [4] the test system is healthy female subjects aged 18-35 years. In words: Inhibition of ovulation / ovarian activity by Hoogland score, phase 2 clinical trial. Type of data set: in vivo, human. The settings on record: 75 μg/day of levonorgestrel, vaginal. On the procedure: The study consists of 4 phases: • Screening phase (minimum of 4 weeks and maximum of 8 weeks if washout cycle was needed). • Pre-treatment cycle (28 days) and randomization. • Treatment cycle consisting of 56 treatment days (2 cycles, 28 days per cycle). • Post-treatment cycle (28 days).
The inhibition of ovulation was determined by the calculation of the Hoogland Score, which combined the measurement of follicle size in mm by TVU and progesterone/estradiol serum concentration in nmol/L (in case an ovulation was suspected sonographically in TC1 or TC2, it was confirmed by blood progesterone levels and reflected by Landgren Score).
Primary endpoint analysis: the inhibition of ovulation (Yes, No), was analyzed through a logistic regression model to compare inhibition of ovulation across treatment groups in which BMI was included as covariate. Adjusted odds ratios (ORs) with their two-sided 95% CI were calculated. No hypothesis testing was performed.

In the case of `C#C[C@]1(O)CC[C@H]2[C@@H]3CCC4=CCCC[C@@H]4[C@H]3C(=C)C[C@@]21CC` [desogestrel], the “Cycles with ovulation inhibited” value in data set [1] is recorded as “at least 98%”.

In the case of `C#C[C@]1(O)CC[C@H]2[C@@H]3CCC4=CC(=O)CC[C@@H]4[C@H]3CC[C@@]21CC` [levonorgestrel], in data set [2], the “Participants with return of ovulation during post-treatment, %” value is “more than 80%”. Also, the Bioavailability in data set [3] is reported as about 100%. Further, the Ovulation inhibition in data set [4] was 100%.
